# Experiments:
# [1] = target: Delta-type opioid receptor (Mus musculus, UniProt P32300); assay: Agonist activity at delta opioid receptor in albino mouse vas deferens assessed as inhibition of electrically-stimulated muscle contraction; type: tissue-based
# [2] = Antioxidant activity assessed as DPPH radical scavenging activity incubated for 30 mins; type: physicochemical; conditions: 0.5 h
# Delta-type opioid receptor, sequence (P32300 whole entry): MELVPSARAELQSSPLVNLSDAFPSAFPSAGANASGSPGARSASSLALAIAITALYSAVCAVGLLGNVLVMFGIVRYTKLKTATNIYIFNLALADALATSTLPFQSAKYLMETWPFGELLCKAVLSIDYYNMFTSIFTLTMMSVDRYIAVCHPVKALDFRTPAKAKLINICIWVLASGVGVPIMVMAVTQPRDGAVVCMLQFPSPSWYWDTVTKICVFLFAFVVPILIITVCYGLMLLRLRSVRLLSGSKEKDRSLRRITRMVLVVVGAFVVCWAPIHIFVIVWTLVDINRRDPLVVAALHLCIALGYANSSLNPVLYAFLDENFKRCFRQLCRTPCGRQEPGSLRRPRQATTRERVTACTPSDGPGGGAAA
Structure (SMILES),IC50 [1],Activity [2]
NCCCC[C@H](NC(=O)[C@H](Cc1ccccc1)NC(=O)[C@@H](CCCN=C(N)N)NC(=O)[C@@H](N)Cc1ccc(O)cc1)C(N)=O,781 nM,
Cc1cc(O)cc(C)c1C[C@H](N)C(=O)N[C@H](CCCNC(=N)N)C(=O)N[C@@H](Cc1ccccc1)C(=O)N[C@@H](CCCCN)C(N)=O,,31.64%
